Measured values as given in US11479546B2, “Antimalarial hexahydropyrimidine analogues” (UCB Biopharma SRL, priority 2018, dated 2022).

These compounds were tested on Plasmodium falciparum 3D7 (assay: P. falciparum 3D7 asexual blood stage assay, Assay Procedure Version 2 (SYBR green readout)). Conditions: Plasmodium falciparum, 3D7, Erythrocyte, 72 h, Version 2 of the assay procedure (asterisk *); 72 h incubation in infected erythrocytes; 50,000 nM to 15 nM.
Assay type: cell-based
Summary of the method: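 P. falciparum 3D7 in A+ erythrocytes (5% haematocrit, 0.5% parasitaemia) exposed 72 h at 37 °C (1% O2, 3% CO2) to 20-point 1.5-fold titrations, final 50,000–15 nM in 0.5% DMSO. SYBR green in lysis buffer overnight, fluorescence 485/528 nm; % inhibition vs mefloquine and DMSO controls, EC50 from biphasic two-site fit.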

C[C@H]1C[C@@H](N2C(=N)N[C@](C)(c3cccc(Nc4ccc(C5CC5)nc4)c3Cl)CC2=O)CCO1 (relative stereo) [Example 199, (6S)-6-{2-Chloro-3-[(6-cyclo-propylpyridin-3-yl)amino]-phenyl}-2-imino-6-methyl-3-[(2S*,4S*)-2-methyltetrahydro-pyran-4-yl]hexahydropyrimidin-4-one] and C[C@@]1(c2cccc(Nc3ccc(Cl)nc3)c2Cl)CC(=O)N(C2CCOCC2)C(=N)N1 [Example 60, (6S)-6-{2-Chloro-3-[(6-chloro-pyridin-3-yl)amino]phenyl}-2-imino-6-methyl-3-(tetrahydro-pyran-4-yl)hexahydropyrimidin-4-one] are within 1.5-fold of each other in IC50: 309 nM for the first, 269 nM for the second.

C[C@@]1(c2cccc(Nc3cccnc3C#N)c2Cl)CC(=O)N(C2CCOCC2)C(=N)N1 [Example 51, 3-{2-Chloro-3-[(4S)-2-imino-4-methyl-6-oxo-1-(tetrahydro-pyran-4-yl)hexahydropyrimidin-4-yl]anilino}pyridine-2-carbo-nitrile] and C[C@@]1(c2cccc(Nc3ccc(C(F)F)nc3C#N)c2Cl)CC(=O)N(C2CCOCC2)C(=N)N1 [Example 100, 3-{2-Chloro-3-[(4S)-2-imino-4-methyl-6-oxo-1-(tetrahydro-pyran-4-yl)hexahydropyrimidin-4-yl]anilino}-6-(difluoro-methyl)pyridine-2-carbonitrile] are within 1.5-fold of each other in IC50: 370 nM for the first, 347 nM for the second.

First: CC(C)Oc1ccccc1Nc1cccc([C@]2(C)CC(=O)N(C3CCOCC3)C(=N)N2)c1Cl [Example 76, (6S)-6-[2-Chloro-3-(2-isopropoxyanilino)phenyl]-2-imino-6-methyl-3-(tetrahydro-pyran-4-yl)hexahydropyrimidin-4-one]
Second: C[C@@]1(c2cccc(Nc3ccccc3OC(F)F)c2Cl)CC(=O)N(C2CCOCC2)C(=N)N1 [Example 66, (6S)-6-{2-Chloro-3-[2-(difluoro-methoxy)anilino]phenyl}-2-imino-6-methyl-3-(tetrahydro-pyran-4-yl)hexahydropyrimidin-4-one]
The IC50 of the first is 3.5-fold higher: 757 nM for the first, 217 nM for the second. The second is the more potent here.

Going from CC(C)(C)c1ncc(Nc2cccc([C@]3(C)CC(=O)N(C4CCC(F)(F)CC4)C(=N)N3)c2Cl)cn1 [Example 141, (6S)-6-{3-[(2-tert-Butyl-pyrimidin-5-yl)amino]-2-chloro-phenyl]-3-(4,4-difluoro-cyclohexyl)-2-imino-6-methyl-hexahydropyrimidin-4-one] to CC1(C)CC(N2C(=N)N[C@](C)(c3cccc(Nc4cnc(C(C)(C)C)cn4)c3Cl)CC2=O)CCO1 (single isomer, unassigned) [Example 149, (6S)-6-{3-[(5-tert-Butylpyrazin-2-yl)amino]-2-chlorophenyl}-3-[(4S*)-2,2-dimethyltetrahydro-pyran-4-yl]-2-imino-6-methyl-hexahydropyrimidin-4-one], the IC50 rises from 180 nM to 1380 nM (7.7-fold). The first is the more potent here.

Compared with Cc1ccc(Nc2cccc([C@]3(C)CC(=O)N([C@H]4C[C@](O)(C(F)(F)F)C4)C(=N)N3)c2Cl)cn1 [Example 152, (6S)-6-{2-Chloro-3-[(6-methyl-pyridin-3-yl)amino]phenyl}-3-[3-hydroxy-3-(trifluoromethyl)-cyclobutyl]-2-imino-6-methyl-hexahydropyrimidin-4-one (cis isomer)], Cc1ccc(Nc2cccc([C@]3(C)CC(=O)N([C@H]4C[C@@](O)(C(F)(F)F)C4)C(=N)N3)c2Cl)cn1 [Example 153, (6S)-6-{2-Chloro-3-[(6-methyl-pyridin-3-yl)amino]phenyl}-3-[3-hydroxy-3-(trifluoromethyl)-cyclobutyl]-2-imino-6-methyl-hexahydropyrimidin-4-one (trans isomer)] is 5.3-fold higher in IC50: 613 nM for the first, 3220 nM for the second. The first is the more potent here.

C[C@@]1(c2cccc(Nc3cnc(OC(F)F)c4ccccc34)c2Cl)CC(=O)N(C2CCOCC2)C(=N)N1 [Example 95, (6S)-6-(2-Chloro-3-{[1-(difluoromethoxy)isoquinolin-4-yl]amino}phenyl)-2-imino-6-methyl-3-(tetrahydropyran-4-yl)hexahydropyrimidin-4-one] and C[C@@]1(c2cccc(Nc3cccc4ccccc34)c2Cl)CC(=O)N(C2CCOCC2)C(=N)N1 [Example 57, (6S)-6-[2-Chloro-3-(1-naphthyl-amino)phenyl]-2-imino-6-methyl-3-(tetrahydropyran-4-yl)hexahydropyrimidin-4-one] are within 1.5-fold of each other in IC50: 456 nM for the first, 600 nM for the second.

First: COc1nc(C)ccc1Nc1cccc([C@]2(C)CC(=O)N(C3CCOCC3)C(=N)N2)c1Cl [Example 55, (6S)-6-{2-Chloro-3-[(2-methoxy-6-methylpyridin-3-yl)-amino]phenyl}-2-imino-6-methyl-3-(tetrahydropyran-4-yl)hexahydropyrimidin-4-one]
Second: COc1cc(Nc2cccc([C@]3(C)CC(=O)N(C4CCOCC4)C(=N)N3)c2Cl)ccn1 [Example 87, (6S)-6-{2-Chloro-3-[(2-methoxypyridin-4-yl)amino]-phenyl}-2-imino-6-methyl-3-(tetrahydropyran-4-yl)-hexahydropyrimidin-4-one]
The IC50 of the first is 1.5-fold lower: 433 nM for the first, 666 nM for the second.

Compared with C[C@@]1(c2cccc(Nc3ccc(C#N)cc3)c2Cl)CC(=O)N([C@H]2C[C@@](C)(O)C2)C(=N)N1 [Example 123, 4-{2-Chloro-3-[(4S)-1-(3-hydroxy-3-methylcyclobutyl)-2-imino-4-methyl-6-oxo-hexahydropyrimidin-4-yl]-anilino}benzonitrile], C[C@@]1(c2cccc(Nc3ccc(OC(F)(F)F)cc3)c2Cl)CC(=O)N(C2CCOCC2)C(=N)N1 [Example 64, (6S)-6-{2-Chloro-3-[4-(trifluoromethoxy)anilino]-phenyl}-2-imino-6-methyl-3-(tetrahydropyran-4-yl)-hexahydropyrimidin-4-one] is 3.2-fold higher in IC50: 552 nM for the first, 1760 nM for the second. The first is the more potent here.

CN1CCOc2cc(Nc3cccc([C@]4(C)CC(=O)N(C5CCOCC5)C(=N)N4)c3Cl)ccc21 [Example 86, (6S)-6-{2-Chloro-3-[(4-methyl-2,3-dihydro-1,4-benzoxazin-7-yl)amino]phenyl}-2-imino-6-methyl-3-(tetrahydropyran-4-yl)hexahydropyrimidin-4-one] and C[C@@]1(c2cccc(Nc3ccc(C4(C#N)CCC4)nc3)c2Cl)CC(=O)N(C2CCOCC2)C(=N)N1 [Example 103, 1-(5-{2-Chloro-3-[(4S)-2-imino-4-methyl-6-oxo-1-(tetrahydro-pyran-4-yl)hexahydropyrimidin-4-yl]anilino}pyridin-2-yl)-cyclobutanecarbonitrile] are within 1.5-fold of each other in IC50: 658 nM for the first, 551 nM for the second.

Same assay, conditions: Version 2 of the assay procedure (asterisk *); 72 h incubation in infected erythrocytes; 50,000 nM to 15 nM

CC1(C#N)CC(N2C(=N)N[C@](C)(c3cccc(Nc4ccc(F)cc4)c3Cl)CC2=O)C1 [Example 180, 3-{(4S)-4-[2-Chloro-3-(4-fluoroanilino)phenyl]-2-imino-4-methyl-6-oxohexahydro-pyrimidin-1-yl}-1-methyl-cyclobutanecarbonitrile (trans isomer)] and Cc1ccc(Nc2cccc([C@]3(C)CC(=O)N(C4CCOC(C)(C)C4)C(=N)N3)c2Cl)cn1 (single isomer, unassigned) [Example 146, (6S)-6-{2-Chloro-3-[(6-methyl-pyridin-3-yl)amino]phenyl}-3-[(4S*)-2,2-dimethyltetrahydro-pyran-4-yl]-2-imino-6-methyl-hexahydropyrimidin-4-one] are within 1.5-fold of each other in IC50: 629 nM for the first, 425 nM for the second.

Work on CC1(C#N)CC(N2C(=N)N[C@](C)(c3cccc(Nc4ccc(F)cc4)c3Cl)CC2=O)C1 [Example 181, 3-{(4S)-4-[2-Chloro-3-(4-fluoroanilino)phenyl]-2-imino-4-methyl-6-oxohexahydro-pyrimidin-1-yl}-1-methyl-cyclobutanecarbonitrile (cis isomer)] yielded an IC50 of 201 nM.
